# Assay results from patent publication US20240124412A1, “IKAROS ZINC FINGER FAMILY DEGRADERS AND USES THEREOF” (Gilead Sciences, Inc., priority 2021, published 2024).
# Key:
# IKZF1 = target: T1, IKZF1 (Homo sapiens, UniProt Q13422+Q96SW2); test: HiBiT protein tagging assay, in vitro IKZF1 degradation (HEK293); type: cell-based; conditions: HEK293, 18-24 hr incubation, normalized to DMSO control; for Dmax: read-out: IKZF1 Dmax (maximum degradation at the highest concentration tested); for DC50: read-out: IKZF1 EC50
# T1 construct: expressed in transfected cells
# T1 sequence (Q13422 whole entry): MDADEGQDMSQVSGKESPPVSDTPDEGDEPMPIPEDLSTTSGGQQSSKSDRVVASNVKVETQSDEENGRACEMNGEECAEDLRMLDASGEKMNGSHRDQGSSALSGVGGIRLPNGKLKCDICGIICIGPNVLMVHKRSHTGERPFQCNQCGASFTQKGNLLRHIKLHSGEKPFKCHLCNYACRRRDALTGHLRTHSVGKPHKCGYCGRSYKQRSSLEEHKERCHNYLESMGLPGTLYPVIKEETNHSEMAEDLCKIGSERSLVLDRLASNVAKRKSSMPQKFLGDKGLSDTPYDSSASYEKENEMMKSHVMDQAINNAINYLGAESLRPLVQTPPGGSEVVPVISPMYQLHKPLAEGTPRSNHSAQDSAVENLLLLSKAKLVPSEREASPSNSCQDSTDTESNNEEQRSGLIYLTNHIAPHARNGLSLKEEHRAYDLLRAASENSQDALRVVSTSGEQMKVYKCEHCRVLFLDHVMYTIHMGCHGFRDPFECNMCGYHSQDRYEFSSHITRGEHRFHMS
# T1 sequence (Q96SW2 whole entry): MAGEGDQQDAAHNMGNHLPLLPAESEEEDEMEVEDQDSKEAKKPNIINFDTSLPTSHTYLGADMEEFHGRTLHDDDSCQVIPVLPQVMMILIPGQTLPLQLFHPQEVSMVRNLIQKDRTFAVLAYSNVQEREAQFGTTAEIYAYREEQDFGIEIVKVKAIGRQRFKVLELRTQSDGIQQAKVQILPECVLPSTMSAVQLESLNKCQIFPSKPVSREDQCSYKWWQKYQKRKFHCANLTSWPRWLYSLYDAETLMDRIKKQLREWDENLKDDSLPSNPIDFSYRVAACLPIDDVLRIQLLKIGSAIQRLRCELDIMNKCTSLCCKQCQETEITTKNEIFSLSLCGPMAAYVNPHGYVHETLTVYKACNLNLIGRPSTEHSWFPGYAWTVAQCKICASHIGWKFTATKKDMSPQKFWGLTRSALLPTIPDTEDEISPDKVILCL
# T1 sequence (Q16531 whole entry partner): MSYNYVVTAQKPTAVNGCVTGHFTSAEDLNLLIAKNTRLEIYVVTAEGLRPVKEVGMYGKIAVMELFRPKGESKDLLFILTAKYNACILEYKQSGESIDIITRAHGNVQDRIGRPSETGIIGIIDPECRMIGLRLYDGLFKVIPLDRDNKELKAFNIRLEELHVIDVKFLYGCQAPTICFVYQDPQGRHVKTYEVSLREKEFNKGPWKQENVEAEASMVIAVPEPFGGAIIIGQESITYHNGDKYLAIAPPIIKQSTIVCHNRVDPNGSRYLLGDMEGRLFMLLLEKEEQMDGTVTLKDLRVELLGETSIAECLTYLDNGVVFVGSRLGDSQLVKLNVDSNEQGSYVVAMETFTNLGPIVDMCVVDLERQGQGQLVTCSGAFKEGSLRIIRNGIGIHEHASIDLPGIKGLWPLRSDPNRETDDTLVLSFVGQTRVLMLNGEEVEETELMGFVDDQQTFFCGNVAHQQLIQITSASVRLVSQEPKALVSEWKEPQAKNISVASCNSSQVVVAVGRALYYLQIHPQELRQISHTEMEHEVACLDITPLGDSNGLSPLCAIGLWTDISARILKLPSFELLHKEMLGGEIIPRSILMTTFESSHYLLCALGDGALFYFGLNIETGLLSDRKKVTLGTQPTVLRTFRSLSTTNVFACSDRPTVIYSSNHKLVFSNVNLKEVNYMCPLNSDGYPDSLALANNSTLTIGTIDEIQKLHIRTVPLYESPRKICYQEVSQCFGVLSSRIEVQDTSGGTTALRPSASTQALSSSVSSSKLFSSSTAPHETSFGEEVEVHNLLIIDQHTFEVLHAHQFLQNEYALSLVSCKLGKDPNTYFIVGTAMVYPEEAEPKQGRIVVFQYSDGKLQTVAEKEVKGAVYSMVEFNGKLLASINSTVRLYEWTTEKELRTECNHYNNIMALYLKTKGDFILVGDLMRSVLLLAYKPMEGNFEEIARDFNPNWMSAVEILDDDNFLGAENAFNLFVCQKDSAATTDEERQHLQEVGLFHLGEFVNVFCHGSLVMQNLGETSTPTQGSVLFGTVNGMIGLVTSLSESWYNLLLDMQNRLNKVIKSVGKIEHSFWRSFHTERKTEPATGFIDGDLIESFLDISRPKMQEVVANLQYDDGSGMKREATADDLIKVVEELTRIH
# Experimental: (§1) In vitro degradation of IKZF1 and IKZF2 was measured using HiBiT protein tagging and detection technology (Promega).
# (§2) HiBiT technology (Promega) was used to develop the quantitative assays to measure the cellular IKZFs level by tagging an 11 amino acid HiBit peptides VSGWRLFKKIS (SEQ ID NO:1) to the protein of interest. Reporter plasmids were generated by fusing a linker sequence (GSSGGSSG; SEQ ID NO:2) followed by the HiBiT tag at the C terminus of IKZF1 and IKZF2. The fusion fragments were subsequently cloned into pcDNA5 pcDNA™5/FRT/TO plasmids (Thermo Fisher, cat #V652020) downstream of the Tetracycline operator. The resulting plasmids were co-transfected with pOG44 Flp-Recombinase Expression Vector (Thermo Fisher, cat #V600520) into Flp-In™ T-REx HEK293 line (Thermo Fisher, cat #R78077) and a stable cell pool was selected by adding 100 μg/ml of Hygromycin (Thermo Fisher, cat #10687010). The reporter cell enabled Tet-On inducible reporter expression from a single copy of the integrated gene.
# (§3) On Day 1, Cells were grown to ˜80% confluency in TC medium (DMEM Glutamax (Gibco10569), 10% Tet free FBS (Takara 631106), and PenStrep Glutamin (Gibco 10378)) in tissue culture flasks. Doxycycline was then added to a final concentration of 1 μg/ml to induce reporter expression at 37° C. overnight.
# (§4) On Day 2, 125 nL of serially-diluted solution of testing compounds were dispensed into 384-well white solid assay plates via ECHO acoustic liquid handler. Cells were lifted by 0.25% Trypsin (Gibco 25200) then pelleted by centrifugation (Beckman Avanti J-E) at 500×g for 5 min. Cell pellets were resuspended in TC medium at the concentration of 3e5/mL and 25 μL of cell suspension were added into each well of compound-spotted plates. The plates were returned to a 37° C. incubator overnight (18-24 hr).
# (§5) On Day 3, assay plates were removed from the TC incubator and 25 μL of Nano-Glo lytic detection system (Promega, cat #N3030) was added to each well. Plates were incubated at r.t. for 3 min with shaking, and luminescence was read using an Envision reader (Perkin Elmer).
# (§6) All raw data was normalized to DMSO control (final concentration: 0.5%) wells as POC and plotted out for EC50 and Dmax (Maximum degradation at the highest concentration tested in the assay).
# IKZF2 = target: T2, IKZF2 (Homo sapiens, UniProt Q96SW2+Q9UKS7); test: HiBiT protein tagging assay, in vitro IKZF2 degradation (HEK293); type: cell-based; conditions: HEK293, 18-24 hr incubation, normalized to DMSO control; for Dmax: HEK293, HiBiT assay, read-out: IKZF2 Dmax (maximum degradation at the highest concentration tested); for DC50: HiBiT assay, read-out: IKZF2 EC50
# T2 construct: expressed in transfected cells
# T2 sequence (Q9UKS7 1-500 isoform Q9UKS7-2): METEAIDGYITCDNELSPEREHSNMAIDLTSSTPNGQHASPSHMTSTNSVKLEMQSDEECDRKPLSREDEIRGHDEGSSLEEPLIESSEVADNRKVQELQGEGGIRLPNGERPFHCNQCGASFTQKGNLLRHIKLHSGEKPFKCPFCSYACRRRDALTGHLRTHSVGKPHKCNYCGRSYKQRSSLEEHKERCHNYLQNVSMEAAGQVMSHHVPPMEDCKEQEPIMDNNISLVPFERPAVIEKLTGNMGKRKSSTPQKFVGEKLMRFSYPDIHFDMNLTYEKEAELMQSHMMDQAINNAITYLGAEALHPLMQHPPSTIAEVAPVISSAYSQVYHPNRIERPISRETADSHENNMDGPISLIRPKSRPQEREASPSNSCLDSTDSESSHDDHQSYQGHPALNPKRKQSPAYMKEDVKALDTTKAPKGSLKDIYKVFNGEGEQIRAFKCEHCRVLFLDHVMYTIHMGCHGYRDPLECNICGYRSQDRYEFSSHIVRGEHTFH
# T2 sequence (Q96SW2 whole entry): as the sequence (Q96SW2 whole entry) above
# T2 sequence (Q16531 whole entry partner): as the sequence (Q16531 whole entry partner) above
# Experimental: as §1, §2, §3, §4, §5, §6
Dmax (IKZF1),DC50 (IKZF1),Dmax (IKZF2),DC50 (IKZF2),Structure (SMILES)
38%,158 nM,28%,265 nM,CO[C@H]1CCCC[C@H]1NCc1ccc2c(c1)CN(C1CCC(=O)NC1=O)C2=O (stereo partly shown) [Example 107]
95%,7 nM,90%,75 nM,O=C1CCC(N2Cc3cc(CN[C@@H]4CCC[C@H](OCc5ccccc5)C4)ccc3C2=O)C(=O)N1 (stereo partly shown) [Example 112]
58%,146 nM,84%,97 nM,O=C1CCC(N2Cc3cc(CNC4CCCC5(CC5)C4)ccc3C2=O)C(=O)N1 (stereo not shown) [Example 132]
,> 1000 nM,26%,109 nM,C[C@@H]1[C@H]2C[C@@H](C[C@H]1NCc1ccc3c(c1)CN(C1CCC(=O)NC1=O)C3=O)C2(C)C (stereo partly shown) [Example 139]
95%,3 nM,96%,8 nM,O=C1CCC(N2Cc3cc(CN[C@@H]4CCC[C@H](Cc5ccccc5Cl)C4)ccc3C2=O)C(=O)N1 (stereo partly shown) [Example 137]
94%,17 nM,93%,105 nM,"C[C@H]1CC[C@@H](NCc2ccc3c(c2)CN(C2CCC(=O)NC2=O)C3=O)CN1Cc1ccccc1 (stereo partly drawn) [Example 119, 3-(5-((((3R,6S)-1-benzyl-6-methylpiperidin-3-yl)amino)methyl)-1-oxoisoindolin-2-yl)piperidine-2,6-dione]"
38%,119 nM,43%,177 nM,CC[C@H]1CCCC[C@H]1NCc1ccc2c(c1)CN(C1CCC(=O)NC1=O)C2=O (stereo partly shown) [Example 148]
95%,124 nM,86%,427 nM,"O=C1CCC(N2Cc3cc(CN[C@@H]4CCCN(Cc5ccncc5)C4)ccc3C2=O)C(=O)N1 (stereo partly drawn) [Example 125, 3-(1-oxo-5-((((R)-1-(pyridin-4-ylmethyl)piperidin-3-yl)amino)methyl)isoindolin-2-yl)piperidine-2,6-dione]"
50%,137 nM,88%,97 nM,COC(=O)C1(C)CCCC(NCc2ccc3c(c2)CN(C2CCC(=O)NC2=O)C3=O)C1 (stereo not shown) [Example 144]
71%,45 nM,30%,121 nM,"O=C1CCC(N2Cc3cc(CNC4CC(c5ccccc5)CN(Cc5ccccc5)C4)ccc3C2=O)C(=O)N1 (stereo not shown) [Example 109, 3-(5-(((1-benzyl-5-phenylpiperidin-3-yl)amino)methyl)-1-oxoisoindolin-2-yl)piperidine-2,6-dione]"

# The next lines start with the molecule.
Structure (SMILES),Dmax (IKZF1),DC50 (IKZF1),Dmax (IKZF2),DC50 (IKZF2)
"O=C1CCC(N2Cc3cc(CNC4CC5CCC4C5)ccc3C2=O)C(=O)N1 (stereo not drawn) [Example 42, 3-(5-((exo-bicyclo[2.2.1]heptan-2-ylamino)methyl)-1-oxoisoindolin-2-yl)piperidine-2,6-dione]",30%,85 nM,65%,193 nM
"O=C1CCC(N2Cc3cc(CN[C@@H]4CCCN(c5ccccc5)C4)ccc3C2=O)C(=O)N1 (stereo partly drawn) [Example 30, 3-(1-oxo-5-((((R)-1-phenylpiperidin-3-yl)amino)methyl)isoindolin-2-yl)piperidine-2,6-dione]",44%,90 nM,36%,208 nM
O=C1CCC(N2Cc3cc(CNC4CCC(Oc5ccccc5)CC4)ccc3C2=O)C(=O)N1 (stereo not shown) [Example 104],82%,23 nM,72%,42 nM
"O=C1CCC(N2Cc3cc(CN[C@H]4CCC[C@H](Cc5ccccc5)C4)ccc3C2=O)C(=O)N1 (relative stereo) [Example 11, 3-(5-((((1,3-trans)-3-benzylcyclohexyl)amino)methyl)-1-oxoisoindolin-2-yl)piperidine-2,6-dione]",67%,25 nM,68%,81 nM
O=C1CCC(N2Cc3cc(CN[C@H]4CCC[C@@H](Nc5ccccc5)C4)ccc3C2=O)C(=O)N1 (stereo partly shown) [Example 91],63%,116 nM,73%,333 nM
"O=C1CCC(N2Cc3cc(CN[C@@H]4CCCN(Cc5ccc(Cl)cc5)C4)ccc3C2=O)C(=O)N1 (stereo partly drawn) [Example 100, 3-(5-((((R)-1-(4-chlorobenzyl)piperidin-3-yl)amino)methyl)-1-oxoisoindolin-2-yl)piperidine-2,6-dione]",98%,1 nM,97%,6 nM
"CN(Cc1ccc2c(c1)CN(C1CCC(=O)NC1=O)C2=O)C1CCN(Cc2ccccc2)CC1 (stereo not shown) [Example 18, 3-(5-(((1-benzylpiperidin-4-yl)(methyl)amino)methyl)-1-oxoisoindolin-2-yl)piperidine-2,6-dione]",,> 10000 nM,21%,328 nM
"O=C1CCC(N2Cc3cc(CN[C@@H]4C[C@@H]5CC[C@H]4C5)ccc3C2=O)C(=O)N1 (stereo partly drawn) [Example 71, 3-(5-((((1S,2R,4R)-bicyclo[2.2.1]heptan-2-yl)amino)methyl)-1-oxoisoindolin-2-yl)piperidine-2,6-dione]",33%,170 nM,36%,297 nM
"O=C1CCC(N2Cc3cc(CNCCc4ccccc4Cl)ccc3C2=O)C(=O)N1 (stereo not shown) [Example 44, 3-(5-(((2-chlorophenethyl)amino)methyl)-1-oxoisoindolin-2-yl)piperidine-2,6-dione]",72%,38 nM,32%,240 nM
C[C@H]1CCCC[C@@H]1NCc1ccc2c(c1)CN(C1CCC(=O)NC1=O)C2=O (stereo partly shown) [Example 102],23%,164 nM,69%,220 nM
"O=C1CCC(N2Cc3cc(CNC45CC(C4)C5)ccc3C2=O)C(=O)N1 (stereo not shown) [Example 15, 3-(5-((bicyclo[1.1.1]pentan-1-ylamino)methyl)-1-oxoisoindolin-2-yl)piperidine-2,6-dione]",,> 10000 nM,29%,1800 nM
C[C@@H]1CCCC[C@@H]1NCc1ccc2c(c1)CN(C1CCC(=O)NC1=O)C2=O (stereo partly shown) [Example 46],36%,275 nM,76%,141 nM
CO[C@H]1CC[C@H](NCc2ccc3c(c2)CN(C2CCC(=O)NC2=O)C3=O)CC1 (stereo partly shown) [Example 76],51%,184 nM,90%,144 nM
O=C1CCC(N2Cc3cc(CN[C@@H]4CCC[C@H](O)C4)ccc3C2=O)C(=O)N1 (stereo partly shown) [Example 82],,> 10000 nM,71%,1300 nM
"O=C1CCC(N2Cc3cc(CN[C@H]4CCN(Cc5ccccc5)C4)ccc3C2=O)C(=O)N1 (stereo partly drawn) [Example 19, 3-(5-((((S)-1-benzylpyrrolidin-3-yl)amino)methyl)-1-oxoisoindolin-2-yl)piperidine-2,6-dione]",46%,122 nM,52%,442 nM
"O=C1CCC(N2Cc3cc(CN[C@@H]4CCCC[C@H]4CO)ccc3C2=O)C(=O)N1 (stereo partly drawn) [Example 73, 3-(5-((((1R,2R)-2-(hydroxymethyl)cyclohexyl)amino)methyl)-1-oxoisoindolin-2-yl)piperidine-2,6-dione]",34%,5800 nM,31%,1200 nM
"O=C1CCC(N2Cc3cc(CNC4Cc5ccccc5N(Cc5ccccc5)C4)ccc3C2=O)C(=O)N1 (stereo not shown) [Example 25, 3-(5-(((1-benzyl-1,2,3,4-tetrahydroquinolin-3-yl)amino)methyl)-1-oxoisoindolin-2-yl)piperidine-2,6-dione]",38%,84 nM,39%,1800 nM
"O=C1CCC(N2Cc3cc(CNC4CCN(c5cccnc5)CC4)ccc3C2=O)C(=O)N1 (stereo not shown) [Example 36, 3-(1-oxo-5-(((1-(pyridin-3-yl)piperidin-4-yl)amino)methyl)isoindolin-2-yl)piperidine-2,6-dione]",84%,96 nM,90%,588 nM
N#C[C@H]1CC[C@H](NCc2ccc3c(c2)CN(C2CCC(=O)NC2=O)C3=O)CC1 (stereo partly shown) [Example 80],57%,253 nM,92%,166 nM
